# Data taken from US20230234943A1, “TREX1 INHIBITORS AND USES THEREOF” (Tempest Therapeutics, Inc., priority 2020, published 2023).
# Target: T1, Human TREX1 enzyme (amino acids 1-242) (Homo sapiens, UniProt Q9NSU2)
# T1 construct: Human TREX1 enzyme (amino acids 1-242)
# T1 sequence (Q9NSU2 1-242): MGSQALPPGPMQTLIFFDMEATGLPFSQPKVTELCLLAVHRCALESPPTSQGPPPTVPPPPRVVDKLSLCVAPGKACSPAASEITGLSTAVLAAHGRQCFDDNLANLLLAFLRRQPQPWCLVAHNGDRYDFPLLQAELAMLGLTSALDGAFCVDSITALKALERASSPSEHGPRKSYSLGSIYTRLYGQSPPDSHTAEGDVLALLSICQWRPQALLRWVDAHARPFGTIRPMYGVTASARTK
# Test: Human TREX1 enzymatic assay with dsDNA native oligonucleotide (Picogreen fluorescence)
# Type: biochemical
# Details: 2 mM dithiothreitol in assay buffer; 50 nM dsDNA oligonucleotide; 30 min preincubation at 25° C.; read-out: TREX1/Human + DTT IC50 AVG
# In short: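 Remaining dsDNA quantified by Picogreen fluorescence after EDTA quench, with no-enzyme and DMSO wells as controls. Reactions used 50 nM annealed oligonucleotide for 5–15 min at 25 °C, after a 30 min compound–enzyme preincubation (0.8–0.16 nM TREX1; 2% DMSO; pH 7.7 Tris, 5 mM MgCl2).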
row,Compound,IC50 [µM]
1,"O=C(O)c1ccc(-c2nc3ccccc3n2C2COC2)c(F)c1O [Example 141, 3-fluoro-2-hydroxy-4-(1-(oxetan-3-yl)-1H-benzo[d]imidazol-2-yl)benzoic acid]",> 100
2,"COc1cc(-c2nc3cc(N4CC5(CNC5)C4)ccc3[nH]2)cc(O)c1O [Example 142, 5-(5-(2,6-diazaspiro[3.3]heptan-2-yl)-1H-benzo[d]imidazol-2-yl)-3-methoxybenzene-1,2-diol]",> 100
3,"COc1cc(-c2nc3cc(N4CC(C)C4)ccc3[nH]2)cc(O)c1O [Example 143, 3-methoxy-5-(5-(3-methylazetidin-1-yl)-1H-benzo[d]imidazol-2-yl)benzene-1,2-diol]",> 100
4,"COc1cc(-c2nc3cc(N4CC(OC)C4)ccc3[nH]2)cc(O)c1O [Example 144, 3-methoxy-5-(5-(3-methoxyazetidin-1-yl)-1H-benzo[d]imidazol-2-yl)benzene-1,2-diol]",10 to 100
5,"COc1cc(-c2nc3cc(N4CC(F)C4)ccc3[nH]2)cc(O)c1O [Example 145, 5-(5-(3-fluoroazetidin-1-yl)-1H-benzo[d]imidazol-2-yl)-3-methoxybenzene-1,2-diol]",> 100
6,"COc1cc(-c2nc3cc(N4CC(NS(C)(=O)=O)C4)ccc3[nH]2)cc(O)c1O [Example 146, N-(1-(2-(3,4-dihydroxy-5-methoxyphenyl)-1H-benzo[d]imidazol-5-yl)azetidin-3-yl)methanesulfonamide]",1 to 10
7,"O=C(O)c1ccc(-c2nc3ccncc3[nH]2)c(F)c1O [Example 147, 3-fluoro-2-hydroxy-4-(3H-imidazo[4,5-c]pyridin-2-yl)benzoic acid]",> 100
8,"COc1cc(-c2nc3ccccc3n2C2CCCC2)c(C)c(O)c1O [Example 148, 4-(1-cyclopentyl-1H-benzo[d]imidazol-2-yl)-6-methoxy-3-methylbenzene-1,2-diol]",1 to 10
9,"COc1cc(-c2nc3ccccc3n2C2CCOCC2)c(C)c(O)c1O [Example 149, 6-methoxy-3-methyl-4-(1-(tetrahydro-2H-pyran-4-yl)-1H-benzo[d]imidazol-2-yl)benzene-1,2-diol]",10 to 100
10,"O=C(O)c1cc(F)c(-c2nc3cc(N4CCC4)ccc3[nH]2)cc1O [Example 150, 4-(5-(azetidin-1-yl)-1H-benzo[d]imidazol-2-yl)-5-fluoro-2-hydroxybenzoic acid]",1 to 10
11,"COc1cc(-c2nc3cc(N4CCOCC4)ccc3[nH]2)cc(C(=O)O)c1O [Example 151, 2-hydroxy-3-methoxy-5-(5-morpholino-1H-benzo[d]imidazol-2-yl)benzoic acid]",10 to 100
12,"COc1cc(-c2nc3cc(N4CC5(CN(C)C5)C4)ccc3[nH]2)cc(O)c1O [Example 152, 3-methoxy-5-(5-(6-methyl-2,6-diazaspiro[3.3]heptan-2-yl)-1H-benzo[d]imidazol-2-yl)benzene-1,2-diol]",> 100
13,"COc1cc(-c2nc3cc(N4CC5(C4)CN(C(C)C)C5)ccc3[nH]2)cc(O)c1O [Example 153, 5-(5-(6-isopropyl-2,6-diazaspiro[3.3]heptan-2-yl)-1H-benzo[d]imidazol-2-yl)-3-methoxybenzene-1,2-diol]",10 to 100
14,"COc1cc(-c2nc3cc(N4CCN(C(=O)c5cccc(C)c5)CC4)ccc3[nH]2)cc(O)c1O [Example 154, (4-(2-(3,4-dihydroxy-5-methoxyphenyl)-1H-benzo[d]imidazol-5-yl)piperazin-1-yl)(m-tolyl)methanone]",1 to 10
15,"COc1cc(-c2nc3cc(N4CCN(C(=O)c5ccccc5C(=O)O)CC4)ccc3[nH]2)cc(O)c1O [Example 155, 2-(4-(2-(3,4-dihydroxy-5-methoxyphenyl)-1H-benzo[d]imidazol-5-yl)piperazine-1-carbonyl)benzoic acid]",10 to 100
16,"COc1cc(-c2nc3cc(N4CCOCC4)ccc3s2)cc(O)c1O [Example 156, 3-methoxy-5-(5-morpholinobenzo[d]thiazol-2-yl)benzene-1,2-diol]",10 to 100
17,"COc1cc(-c2nc3cc(N4CCC4)ccc3[nH]2)c(F)c(O)c1O [Example 157, 4-(5-(azetidin-1-yl)-1H-benzo[d]imidazol-2-yl)-3-fluoro-6-methoxybenzene-1,2-diol]",1 to 10
18,"COc1cc(-c2nc3ccccc3n2C2(C)CCOC2)c(C)c(O)c1O (centres unmarked) [Example 158, 6-methoxy-3-methyl-4-(1-(3-methyltetrahydrofuran-3-yl)-1H-benzo[d]imidazol-2-yl)benzene-1,2-diol]",1 to 10
19,"COc1cc(-c2nc3cc(N4CCN(C(=O)c5ccccc5)CC4)ccc3[nH]2)c(F)c(O)c1O [Example 159, (4-(2-(2-fluoro-3,4-dihydroxy-5-methoxyphenyl)-1H-benzo[d]imidazol-5-yl)piperazin-1-yl)(phenyl)methanone]",1 to 10

row,Compound,IC50 [µM]
1,"COc1cc(-c2nc3cc(N4CCC(N5CCCCC5)CC4)ccc3[nH]2)cc(O)c1O [Example 160, 5-(5-([1,4′-bipiperidin]-1′-yl)-1H-benzo[d]imidazol-2-yl)-3-methoxybenzene-1,2-diol]",> 100
2,"O=C(O)c1ccc(-c2nc3ccccc3n2C2COC2)c(C(F)(F)F)c1O [Example 161, 2-hydroxy-4-(1-(oxetan-3-yl)-1H-benzo[d]imidazol-2-yl)-3-(trifluoromethyl)benzoic acid]",> 100
3,"Oc1cc(-c2nc3ccccc3n2C2COC2)c2c(c1O)OCC2 [Example 162, 4-(1-(oxetan-3-yl)-1H-benzo[d]imidazol-2-yl)-2,3-dihydrobenzofuran-6,7-diol]",> 100
4,"Oc1cc(-c2nc3ccccc3n2C2COC2)c2c(c1O)OCCC2 [Example 163, 5-(1-(oxetan-3-yl)-1H-benzo[d]imidazol-2-yl)chroman-7,8-diol]",0.1 to 1
5,"COc1cc(-c2nc3cc(N4CCC4)c(C)cc3[nH]2)cc(O)c1O [Example 164, 5-(5-(azetidin-1-yl)-6-methyl-1H-benzo[d]imidazol-2-yl)-3-methoxybenzene-1,2-diol]",1 to 10
6,"COc1cc(-c2nc3ccccc3n2C2CNC2)c(C)c(O)c1O [Example 165, 4-(1-(azetidin-3-yl)-1H-benzo[d]imidazol-2-yl)-6-methoxy-3-methylbenzene-1,2-diol]",10 to 100
7,"COc1cc(-c2nc3ccc(N4CCC4)cc3n2C2CCOC2)cc(C(=O)O)c1O (centres unmarked) [Example 166, 5-(6-(azetidin-1-yl)-1-(tetrahydrofuran-3-yl)-1H-benzo[d]imidazol-2-yl)-2-hydroxy-3-methoxybenzoic acid]",10 to 100
8,"COc1cc(-c2nc3ccccc3n2C2COC2)c(F)c(O)c1O [Example 167, 3-fluoro-6-methoxy-4-(1-(oxetan-3-yl)-1H-benzo[d]imidazol-2-yl)benzene-1,2-diol]",1 to 10
9,"COc1cc(-c2nc3ccccc3n2C2CCC2)c(C)c(O)c1O [Example 168, 4-(1-cyclobutyl-1H-benzo[d]imidazol-2-yl)-6-methoxy-3-methylbenzene-1,2-diol]",0.1 to 1
10,"COc1cc(-c2nc3ccccc3n2C2(C)COC2)c(C)c(O)c1O [Example 169, 6-methoxy-3-methyl-4-(1-(3-methyloxetan-3-yl)-1H-benzo[d]imidazol-2-yl)benzene-1,2-diol]",0.1 to 1
11,"COc1cc(-c2nc3ccccc3n2[C@H]2COC[C@@H]2O)c(C)c(O)c1O [Example 170, 4-(1-((3S,4R)-4-hydroxytetrahydrofuran-3-yl)-1H-benzo[d]imidazol-2-yl)-6-methoxy-3-methylbenzene-1,2-diol]",10 to 100
12,"Cc1cc(C(=O)O)c(O)cc1-c1nc2ccccc2n1C1COC1 [Example 171, 2-hydroxy-5-methyl-4-(1-(oxetan-3-yl)-1H-benzo[d]imidazol-2-yl)benzoic acid]",> 100
13,"COCCn1c(-c2cc(OC)c(O)c(O)c2C)nc2ccccc21 [Example 172, 6-methoxy-4-[1-(2-methoxyethyl)-1H-1,3-benzodiazol-2-yl]-3-methylbenzene-1,2-diol]",> 100
14,"CCc1c(-c2nc3ccccc3n2C2(C)COC2)cc(OC)c(O)c1O [Example 173, 3-ethyl-6-methoxy-4-[1-(3-methyloxetan-3-yl)-1H-1,3-benzodiazol-2-yl]benzene-1,2-diol]",10 to 100
15,"COc1ccc2c(c1)nc(-c1cc(OC)c(O)c(O)c1C)n2C1CCC1 [Example 176, 4-(1-cyclobutyl-5-methoxy-1H-1,3-benzodiazol-2-yl)-6-methoxy-3-methylbenzene-1,2-diol]",0.1 to 1
16,"COc1cc(-c2nc3ccc(C(=O)N4CCC4)cc3n2C2(C)COC2)c(F)c(O)c1O [Example 177, 4-[6-(azetidine-1-carbonyl)-1-(3-methyloxetan-3-yl)-1H-1,3-benzodiazol-2-yl]-3-fluoro-6-methoxybenzene-1,2-diol]",0.1 to 1
17,"COc1cc(-c2nc3ccc(-c4ncno4)cc3n2C2(C)COC2)c(F)c(O)c1O [Example 181, 3-fluoro-6-methoxy-4-[1-(3-methyloxetan-3-yl)-6-(1,2,4-oxadiazol-5-yl)-1H-1,3-benzodiazol-2-yl] benzene-1,2-diol]",≤ 0.1
18,"COc1cc(-c2nc3ccc(-c4ccccn4)cc3n2C2(C)COC2)c(F)c(O)c1O [Example 182, 3-fluoro-6-methoxy-4-[1-(3-methyloxetan-3-yl)-6-(pyridin-2-yl)-1H-1,3-benzodiazol-2-yl]benzene-1,2-diol]",0.1 to 1
19,"COc1cc(-c2nc3cc(O)ccc3[nH]2)c(C)c(O)c1O [Example 183, 4-(5-hydroxy-1H-1,3-benzodiazol-2-yl)-6-methoxy-3-methylbenzene-1,2-diol]",10 to 100
